Measured values: the NIST ThermoML archive (doi:10.1016/j.fluid.2006.02.001)
± gives the expanded uncertainty stated by the source.

Tests used:
[1] = visual observation
[2] = Molar enthalpy of transition or fusion; conditions: Crystal; DSC
[3] = Solid-liquid equilibrium temperature; conditions: Crystal, Closed cell

For `CCCCCCCCCCCCCCCCCCO` [1-octadecanol], which Normal melting temperature ([1]; Crystal 1) is on record?
Its Normal melting temperature is 57.00 ± 0.5 °C.

For `CCC(=O)C(C)=O` [2,3-pentanedione], which Normal melting temperature ([1]; Crystal 1) is on record?
Its Normal melting temperature is -52.00 ± 0.5 °C.

And the “Molar enthalpy of transition or fusion” value [2]?
Its value is 1.87 ± 0.055 kcal/mol.

What about the Solid-liquid equilibrium temperature ([3]; 697870 kPa) of the same molecule?
The Solid-liquid equilibrium temperature was 293.15 ± 2.6 K.

And the Solid-liquid equilibrium temperature ([3]; 807350 kPa)?
Its Solid-liquid equilibrium temperature is 303.15 ± 2.6 K.

And the Solid-liquid equilibrium temperature ([3]; 947230 kPa)?
Its Solid-liquid equilibrium temperature is 313.15 ± 2.5 K.

And the Solid-liquid equilibrium temperature ([3]; 1117520 kPa)?
Its Solid-liquid equilibrium temperature is 323.15 ± 2.5 K.

What about the Solid-liquid equilibrium temperature ([3]; 1318200 kPa) of the same molecule?
The Solid-liquid equilibrium temperature was 333.15 ± 2.5 K.

What about the Solid-liquid equilibrium temperature ([3]; 1549280 kPa) of the same molecule?
Its Solid-liquid equilibrium temperature is 343.15 ± 2.8 K.

Which Normal melting temperature ([1]; Crystal) does the source give for `C1CCCCC1` [cyclohexane] here?
The Normal melting temperature was 7.0 ± 0.25 °C.

What about the Solid-liquid equilibrium temperature ([3]; 23390 kPa) of the same molecule?
Its Solid-liquid equilibrium temperature is 293.15 ± 0.52 K.

And the Solid-liquid equilibrium temperature ([3]; 45610 kPa)?
Its Solid-liquid equilibrium temperature is 303.15 ± 0.89 K.

What about the Solid-liquid equilibrium temperature ([3]; 67600 kPa) of the same molecule?
Its Solid-liquid equilibrium temperature is 313.15 ± 1.3 K.

And the Solid-liquid equilibrium temperature ([3]; 89340 kPa)?
The Solid-liquid equilibrium temperature was 323.15 ± 1.7 K.

What about the Solid-liquid equilibrium temperature ([3]; 110840 kPa) of the same molecule?
The Solid-liquid equilibrium temperature was 333.15 ± 2.1 K.

What about the Solid-liquid equilibrium temperature ([3]; 132100 kPa) of the same molecule?
Its Solid-liquid equilibrium temperature is 343.15 ± 2.5 K.

Which Normal melting temperature ([1]; Crystal 1) does the source give for `CCCCCCCCCCCCCCCCCCCCO` [1-eicosanol] here?
Its Normal melting temperature is 64.52 ± 0.5 °C.

For `CCCCCCCCCCCCCCCCO` [1-hexadecanol], which Normal melting temperature ([1]; Crystal 1) is on record?
The Normal melting temperature was 49.1 ± 0.5 °C.

For `CCCCCCCCCCCCCCCCCCCC` [eicosane], which Normal melting temperature ([1]; Crystal) is on record?
Its Normal melting temperature is 36.36 ± 0.25 °C.

Which Normal melting temperature ([1]; Crystal) does the source give for `CCCCCCCCCCCCCCCC` [hexadecane] here?
The Normal melting temperature was 18.30 ± 0.25 °C.

For `CCCCCCCCCCCCC` [tridecane], which Normal melting temperature ([1]; Crystal) is on record?
Its Normal melting temperature is -4.14 ± 0.35 °C.

What about the Solid-liquid equilibrium temperature ([3]; 132350 kPa) of the same molecule?
Its Solid-liquid equilibrium temperature is 293.15 ± 0.9 K.

What about the Solid-liquid equilibrium temperature ([3]; 196230 kPa) of the same molecule?
Its Solid-liquid equilibrium temperature is 303.15 ± 1.2 K.

What about the Solid-liquid equilibrium temperature ([3]; 264630 kPa) of the same molecule?
Its Solid-liquid equilibrium temperature is 313.15 ± 1.6 K.

And the Solid-liquid equilibrium temperature ([3]; 337550 kPa)?
The Solid-liquid equilibrium temperature was 323.15 ± 1.9 K.

And the Solid-liquid equilibrium temperature ([3]; 415000 kPa)?
Its Solid-liquid equilibrium temperature is 333.15 ± 2.1 K.

What about the Solid-liquid equilibrium temperature ([3]; 496960 kPa) of the same molecule?
The Solid-liquid equilibrium temperature was 343.15 ± 2.5 K.
